Assay results taken from ChEMBL document CHEMBL1201862, “PubChem BioAssay data set” (2004).
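Cells were grown in 96-well plates and exposed to each compound for 48 hours at five concentrations; endpoints were interpolated linearly between bracketing concentrations, or set to the highest concentration if not reached. Abbreviation: GI50, concentration required for 50% inhibition of growth.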 The source made the active and inactive calls. Rule as the data show it: active = GI50 up to about 1.1 µM and inactive = higher.

What was measured:
Test in all cases: NCI-60 cell line screen, 48 h
HOP-18 = test system: HOP-18
KM-20L2 = test system: KM-20L2
LXFL 529 = test system: LXFL 529
M19-MEL = test system: M19-MEL
SNB-78 = test system: SNB-78
RXF 631 = test system: RXF 631
T47D = test system: T47D
Hs-578T = test system: Hs-578T

Measured: GI50

N#CCCOCN(CO)c1nc(N(CO)COCCC#N)nc(N(CO)COCCC#N)n1
inactive: HOP-18 24.3 µM | KM-20L2 25.9 µM | LXFL 529 17 µM | M19-MEL 23.8 µM | SNB-78 79.4 µM

CCOP(=O)(OCC)C1CCCOC1=O (configuration not stated)
inactive: HOP-18 > 100 µM | KM-20L2 > 100 µM | LXFL 529 > 100 µM | M19-MEL > 100 µM | RXF 631 > 100 µM | SNB-78 > 100 µM

Cc1cc2c(C)nn(Cc3ccc(Cl)cc3)c2c(C#N)c1C
inactive: HOP-18 > 100 µM | KM-20L2 > 100 µM | LXFL 529 > 100 µM | M19-MEL > 100 µM | RXF 631 > 100 µM | SNB-78 > 100 µM

CCc1ccccc1NC(=O)C1=C(C)NC(C)=C(C(=O)Nc2ccccc2CC)C1c1cccc([N+](=O)[O-])c1
inactive: KM-20L2 31 µM | LXFL 529 26.2 µM | M19-MEL 44.7 µM | RXF 631 46.3 µM | SNB-78 43.5 µM

C1=CC(=P(c2ccccc2)(c2ccccc2)c2ccccc2)C=C1
inactive: KM-20L2 11.3 µM | LXFL 529 3.63 µM | M19-MEL 4.04 µM | RXF 631 19.4 µM | SNB-78 7.5 µM

Cc1cc(Br)ccc1/N=N/C1C(=O)ON=C1c1ccccc1 (configuration not stated)
inactive: HOP-18 > 100 µM | KM-20L2 55.2 µM | LXFL 529 69.5 µM | M19-MEL 67.6 µM | RXF 631 51.6 µM | SNB-78 > 100 µM

CC1OC(OCC2COC(O)(Oc3c(-c4ccc(O)c(O)c4)oc4cc(O)cc(O)c4c3=O)C(O)C2O)C(O)C(O)C1O (configuration not stated)
inactive: HOP-18 > 100 µM | KM-20L2 > 100 µM | LXFL 529 > 100 µM | M19-MEL > 100 µM | RXF 631 > 100 µM | SNB-78 > 100 µM

COc1cc([N+](=O)[O-])ccc1NC(=O)c1cccc([N+](=O)[O-])c1O
inactive: HOP-18 5.32 µM | KM-20L2 27.5 µM | LXFL 529 21.3 µM | M19-MEL 24.6 µM | RXF 631 30.8 µM | SNB-78 27.9 µM

CC(=O)n1c(=O)c2cc3c(=O)n(-c4cccc(C#N)c4)c(=O)c3cc2c1=O
inactive: HOP-18 > 100 µM | KM-20L2 > 100 µM | LXFL 529 > 100 µM | M19-MEL > 100 µM | RXF 631 > 100 µM | SNB-78 60.3 µM

COc1ccc(C2ON(c3ccccn3)CC=C2C)cc1 (configuration not stated)
inactive: HOP-18 > 100 µM | KM-20L2 > 100 µM | LXFL 529 > 100 µM | M19-MEL > 100 µM | RXF 631 > 100 µM | SNB-78 > 100 µM

CCOC(=O)C1=C(C)NC2=C(C(=O)N(c3ccccc3)C2c2ccccc2)C1c1ccccc1 (configuration not stated)
inactive: HOP-18 20.4 µM | LXFL 529 16 µM | M19-MEL 17.3 µM | RXF 631 16.1 µM | SNB-78 19.4 µM

COc1cc(-c2nn3c(=O)n(-c4ccc(Cl)cc4)c(=O)nc3s2)cc(OC)c1OC
inactive: HOP-18 57 µM | KM-20L2 > 100 µM | M19-MEL > 100 µM | RXF 631 48.1 µM | SNB-78 19.4 µM

Cc1cc(C)n2c(-c3ccccc3)c(C)cc2n1
inactive: HOP-18 > 100 µM | KM-20L2 29 µM | M19-MEL 30.2 µM | RXF 631 43.6 µM | SNB-78 94.6 µM

Cc1nn(-c2ccccc2)c(-c2ccccc2[N+](=O)[O-])c1CC#N
inactive: KM-20L2 > 100 µM | LXFL 529 > 100 µM | M19-MEL > 100 µM | RXF 631 > 100 µM | SNB-78 > 100 µM

CCN(/N=C1\CC2C=CCN(C2)C(=O)Cc2c1[nH]c1ccccc21)S(=O)(=O)c1ccc(C)cc1 (configuration not stated)
inactive: KM-20L2 64.1 µM | M19-MEL 76.7 µM | RXF 631 96.4 µM

C(=C\C(Sc1ccccc1)c1ccccc1)/NNC1=NN=C(c2ccccc2)C(c2ccccc2)N1 (configuration not stated)
inactive: HOP-18 > 100 µM | KM-20L2 24.8 µM | M19-MEL 27.7 µM | RXF 631 30.5 µM | SNB-78 > 100 µM

CC1=NN(c2ccccc2)C(=O)C1C(=O)C(=O)Nc1ccc(C)cc1C (configuration not stated)
inactive: HOP-18 > 100 µM | T47D > 100 µM | KM-20L2 > 100 µM | LXFL 529 > 100 µM | M19-MEL > 100 µM | Hs-578T > 100 µM | SNB-78 > 100 µM

COc1ccc(-c2cc(=O)c3c(O)cccc3o2)c(OC)c1OC
inactive: KM-20L2 > 100 µM | LXFL 529 99.5 µM | M19-MEL > 100 µM | RXF 631 66.8 µM | SNB-78 51.4 µM
